Each molecule was assayed against T1, human DGAT2 (Homo sapiens, UniProt Q96PD7) (assay: DGAT2 Enzymatic Activity Assay). Conditions: membrane prep of Sf-9 insect cells expressing hDGAT2; 13C18-triolein product by LC/MS/MS; 25 μM diolein, 5 μM 13C oleoyl-CoA.
T1 construct: made in house; host or cells: Sf-9 insect cells (baculovirus), membrane fraction
T1 sequence (Q96PD7 1-388): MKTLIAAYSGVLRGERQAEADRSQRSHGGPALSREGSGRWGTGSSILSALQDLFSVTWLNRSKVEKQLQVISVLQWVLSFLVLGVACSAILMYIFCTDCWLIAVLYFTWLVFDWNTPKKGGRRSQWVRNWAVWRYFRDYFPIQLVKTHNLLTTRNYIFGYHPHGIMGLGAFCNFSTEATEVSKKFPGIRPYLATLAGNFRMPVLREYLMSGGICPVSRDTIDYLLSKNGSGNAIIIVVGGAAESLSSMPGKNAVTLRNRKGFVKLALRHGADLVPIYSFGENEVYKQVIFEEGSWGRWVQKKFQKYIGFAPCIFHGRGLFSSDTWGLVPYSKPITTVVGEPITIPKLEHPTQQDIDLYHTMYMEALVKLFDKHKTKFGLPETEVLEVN
Format: biochemical
Description: Sf-9 insect cells were maintained in Grace's insect cell culture medium with 10% heated-inactivated fetal bovine serum, 1% Pluronic F-68 and 0.14 μg/ml Kanamycine sulfate at 27° C. in a shaker incubator. After infection with untagged baculovirus expressing human DGAT2 (hDGAT2) at multiplicity of infection (MOI) 3 for 48 hours, cells were harvested. Cell pellets were suspended in buffer containing 10 mM Tris-HCl pH 7.5, 1 mM EDTA, 250 mM sucrose and Complete Protease Inhibitor Cocktail (Sigma Aldrich), and sonicated on ice. Cell debris were removed by centrifugation at 2000×g for 15 minutes. Membrane fractions were isolated by ultracentrifugation (100,000×g), resuspended in the same buffer, and frozen (−80° C.) for later use. The protein concentration was determined with the Pierce™ BCA Protein Assay Kit (Thermo Fisher Scientific).
LC/MS/MS analyses were performed using Thermal Fisher's LX4-TSQ Vantage system. This system consists of an Agilent binary high-performance liquid chromatography (HPLC) pump and a TSQ Vantage triple quadrupole MS/MS instrument. For each sample, 2 μL samples from the top organic layer of in-plate liquid-liquid extraction were injected onto a Thermo Betabasic C4 column (2.1 mm×20 mm, 5 μm particle size). The samples were then eluted using the following conditions; mobile phase: Isopropanol:acetonitrile/10 mM ammonium formate=50/35/15 (v/v/v), flow rate: 0.8 mL/min, temperature: 25° C. Data was acquired in positive mode using a heated electrospray ionization (HESI) interface. […] The peak area was integrated by Xcalibur Quan software. The ratio between the ^13C18triolein generated in the reaction and spiked in internal standard ^13C21-triolein was used to generate percentage inhibition and IC50 values. Compound percentage inhibition was calculated by the following formula: Inhibition %=1−[(compound response−low control)/(high control−low control)]×100%.
DGAT2 activity was determined by measuring the amount of enzymatic product ^13C18-triolein (^13C-1,2,3-Tri(cis-9-octadecenoyl)glycerol) using the membrane prep mentioned above. The assay was carried out in ABgene 384-well assay plates in a final volume of 25 μL at rt.
`CC(C)c1c(C(=O)NC2(C)CCS(=O)(=O)CC2)nn2ccc(Oc3ncccc3OCC(F)(F)F)cc12` [Example 48, 3-Isopropyl-N-(4-methyl-1,1-dioxidotetrahydro-2H-thiopyran-4-yl)-5-((3-(2,2,2-trifluoroethoxy)pyridin-2-yl)oxy)pyrazolo[1,5-a]pyridine-2-carboxamide] was tested, and the IC50 was 46 nM.
With `CC1(NC(=O)c2nn3ccc(Oc4ncccc4OCC(F)(F)F)cc3c2C(F)F)CCS(=O)(=O)CC1` [Example 49, 3-(Difluoromethyl)-N-(4-methyl-1,1-dioxidotetrahydro-2H-thiopyran-4-yl)-5-((3-(2,2,2-trifluoroethoxy)pyridin-2-yl)oxy)pyrazolo[1,5-a]pyridine-2-carboxamide] the IC50 was 973 nM.
Work on `CC1(NC(=O)c2nn3ccc(Oc4ncccc4OCC(F)(F)F)cc3c2CO)CCS(=O)(=O)CC1` [Example 50, 3-(Hydroxymethyl)-N-(4-methyl-1,1-dioxidotetrahydro-2H-thiopyran-4-yl)-5-((3-(2,2,2-trifluoroethoxy)pyridin-2-yl)oxy)pyrazolo[1,5-a]pyridine-2-carboxamide] yielded an IC50 of 10 nM.
In the case of `CC1(NC(=O)c2nn3ccc(Oc4ncccc4OCC(F)(F)F)cc3c2C(F)(F)F)CCS(=O)(=O)CC1` [Example 51, N-(4-Methyl-1,1-dioxidotetrahydro-2H-thiopyran-4-yl)-5-((3-(2,2,2-trifluoroethoxy)pyridin-2-yl)oxy)-3-(trifluoromethyl)pyrazolo[1,5-a]pyridine-2-carboxamide], the IC50 is reported as 828 nM.
`CC1(NC(=O)c2nn3ccc(Oc4ncc(F)cc4OCC(F)(F)F)cc3c2C2CC2)CCS(=O)(=O)CC1` [Example 54, 3-cyclopropyl-5-((5-fluoro-3-(2,2,2-trifluoroethoxy)pyridin-2-yl)oxy)-N-(4-methyl-1,1-dioxidotetrahydro-2H-thiopyran-4-yl)pyrazolo[1,5-a]pyridine-2-carboxamide] showed an IC50 of 48 nM.
In the case of `CC1(NC(=O)c2nn3ccc(Oc4ncc(F)cc4OCC(F)(F)F)cc3c2N)CCS(=O)(=O)CC1` [Example 55, 3-Amino-5-((5-fluoro-3-(2,2,2-trifluoroethoxy)pyridin-2-yl)oxy)-N-(4-methyl-1,1-dioxidotetrahydro-2H-thiopyran-4-yl)pyrazolo[1,5-a]pyridine-2-carboxamide], the IC50 is reported as 16 nM.
`CC1(NC(=O)c2cc3c(F)c(Oc4ncc(F)cc4OCC(F)(F)F)ccn3n2)CCS(=O)(=O)CC1` [Example 56, 4-Fluoro-5-((5-fluoro-3-(2,2,2-trifluoroethoxy)pyridin-2-yl)oxy)-N-(4-methyl-1,1-dioxidotetrahydro-2H-thiopyran-4-yl)pyrazolo[1,5-a]pyridine-2-carboxamide] showed an IC50 of 20 nM.
Work on `Cc1c(Oc2ncc(F)cc2OCC(F)(F)F)ccn2nc(C(=O)NC3(C)CCS(=O)(=O)CC3)cc12` [Example 58, 5-((5-Fluoro-3-(2,2,2-trifluoroethoxy)pyridin-2-yl)oxy)-4-methyl-N-(4-methyl-1,1-dioxidotetrahydro-2H-thiopyran-4-yl)pyrazolo[1,5-a]pyridine-2-carboxamide] yielded an IC50 of 6.6 nM.
Molecule `Cc1cc(Oc2ncc(F)cc2OCC(F)(F)F)cc2cc(C(=O)NC3(C)CCS(=O)(=O)CC3)nn12` [Example 59, 5-((5-Fluoro-3-(2,2,2-trifluoroethoxy)pyridin-2-yl)oxy)-7-methyl-N-(4-methyl-1,1-dioxidotetrahydro-2H-thiopyran-4-yl)pyrazolo[1,5-a]pyridine-2-carboxamide] has an IC50 of 6 nM.
Molecule `Cc1cn2nc(C(=O)NC3(C)CCS(=O)(=O)CC3)cc2cc1Oc1ncc(F)cc1OCC(F)(F)F` [Example 60, 5-((5-Fluoro-3-(2,2,2-trifluoroethoxy)pyridin-2-yl)oxy)-6-methyl-N-(4-methyl-1,1-dioxidotetrahydro-2H-thiopyran-4-yl)pyrazolo[1,5-a]pyridine-2-carboxamide] has an IC50 of 3.5 nM.
Work on `CC1(NC(=O)c2nn3ccc(Oc4ncc(Cl)cc4OCC(F)F)nc3c2F)CCS(=O)(=O)CC1` [Example 61, 5-((5-Chloro-3-(2,2-difluoroethoxy)pyridin-2-yl)oxy)-3-fluoro-N-(4-methyl-1,1-dioxidotetrahydro-2H-thiopyran-4-yl)pyrazolo[1,5-a]pyrimidine-2-carboxamide] yielded an IC50 of 133 nM.
Molecule `CC1(NC(=O)c2cc3nc(Oc4ncc(Cl)cc4OCC(F)F)ccn3n2)CCS(=O)(=O)CC1` [Example 62, 5-((5-Chloro-3-(2,2-difluoroethoxy)pyridin-2-yl)oxy)-N-(4-methyl-1,1-dioxidotetrahydro-2H-thiopyran-4-yl)pyrazolo[1,5-a]pyrimidine-2-carboxamide] has an IC50 of 86 nM.
`CC1(NC(=O)c2nc3cc(Oc4ncc(Cl)cc4OCC(F)(F)F)ccn3n2)CCS(=O)(=O)CC1` [Example 63, 7-((5-Chloro-3-(2,2,2-trifluoroethoxy)pyridin-2-yl)oxy)-N-(4-methyl-1,1-dioxidotetrahydro-2H-thiopyran-4-yl)-[1,2,4]triazolo[1,5-a]pyridine-2-carboxamide] was tested, and the IC50 was 349 nM.
Work on `O=C(NC1(C(F)F)CCS(=O)(=O)CC1)c1nc2cc(Oc3ncc(Cl)cc3OCC(F)(F)F)ccn2n1` [Example 64, 7-((5-Chloro-3-(2,2,2-trifluoroethoxy)pyridin-2-yl)oxy)-N-(4-(difluoromethyl)-1,1-dioxidotetrahydro-2H-thiopyran-4-yl)-[1,2,4]triazolo[1,5-a]pyridine-2-carboxamide] yielded an IC50 of 165 nM.
Work on `O=C(NC1(CC(F)(F)F)CCS(=O)(=O)CC1)c1nc2cc(Oc3ncc(Cl)cc3OCC(F)(F)F)ccn2n1` [Example 65, 7-((5-Chloro-3-(2,2,2-trifluoroethoxy)pyridin-2-yl)oxy)-N-(1,1-dioxido-4-(2,2,2-trifluoroethyl)tetrahydro-2H-thiopyran-4-yl)-[1,2,4]triazolo[1,5-a]pyridine-2-carboxamide] yielded an IC50 of 160 nM.
Molecule `CC1(NC(=O)c2nc3cc(Oc4ncc(Cl)cc4OCC(F)(F)F)ccn3n2)CS(=O)(=O)C1` [Example 66, 7-((5-Chloro-3-(2,2,2-trifluoroethoxy)pyridin-2-yl)oxy)-N-(3-methyl-1,1-dioxidothietan-3-yl)-[1,2,4]triazolo[1,5-a]pyridine-2-carboxamide] has an IC50 of 67 nM.
For `CC1(NC(=O)c2cc3nc(OCc4ncc(Cl)cc4OCC(F)F)ccn3n2)CCS(=O)(=O)CC1` [Example 67, 5-((5-Chloro-3-(2,2-difluoroethoxy)pyridin-2-yl)methoxy)-N-(4-methyl-1,1-dioxidotetrahydro-2H-thiopyran-4-yl)pyrazolo[1,5-a]pyrimidine-2-carboxamide], the IC50 was 3.3 nM.
Work on `COc1cccc(COc2ccn3nc(C(=O)NC4(C)CCS(=O)(=O)CC4)cc3n2)n1` [Example 68, 5-((6-Methoxypyridin-2-yl)methoxy)-N-(4-methyl-1,1-dioxidotetrahydro-2H-thiopyran-4-yl)pyrazolo[1,5-a]pyrimidine-2-carboxamide] yielded an IC50 of over 9990 nM.
Molecule `CCOc1cccc(COc2ccn3nc(C(=O)NC4(C)CCS(=O)(=O)CC4)cc3n2)n1` [Example 69, 5-((6-Ethoxypyridin-2-yl)methoxy)-N-(4-methyl-1,1-dioxidotetrahydro-2H-thiopyran-4-yl)pyrazolo[1,5-a]pyrimidine-2-carboxamide] has an IC50 of 264 nM.
Work on `COc1ccc(Cl)c(COc2ccn3nc(C(=O)NC4(C)CCS(=O)(=O)CC4)cc3n2)n1` [Example 70, 5-((3-Chloro-6-methoxypyridin-2-yl)methoxy)-N-(4-methyl-1,1-dioxidotetrahydro-2H-thiopyran-4-yl)pyrazolo[1,5-a]pyrimidine-2-carboxamide] yielded an IC50 of 82 nM.
